Literature values, collected in patent publication US20250160636A1, “Mitigating Ocular Toxicity” (GlaxoSmithKline Intellectual Property Development Limited, priority 2022, published 2025).
Read-outs that look alike come from different tables or passages of the source. Values belong to the molecule of their own block, whether it stands above or below them.

Details: for Vision disorder: n = 255, photopsia

Conjunctivitis (n = 229): 11%
Keratitis (n = 3865 patients): 0.8%
grade III event (number of events, n = 3865 patients): 1
Molecule: CN(C)C/C=C/C(=O)Nc1cc2c(Nc3ccc(F)c(Cl)c3)ncnc2cc1O[C@H]1CCOC1 [Afatinib]

Molecule: CC(C)C[C@H](NC(=O)[C@H](Cc1ccccc1)NC(=O)c1cnccn1)B(O)O [Bortezomib]
Case reports associated with (case reports): Case reports associated with eyelid chalazia.
Label mentions (ocular toxicity issues) (label): Label mentions diplopia, blurred vision, conjunctival infection, irritation.

Molecule: Cc1cc(Nc2ncc(Cl)c(Nc3ccccc3S(=O)(=O)C(C)C)n2)c(OC(C)C)cc1C1CCNCC1 [Ceritinib]
Vision disorder (comprised of vision impairment, blurred vision, accommodation disorder, presbyopia, or reduced visual acuity): Vision disorder 9% (comprised of vision impairment, blurred vision, photopsia,

Molecule: C[C@@H](Oc1cc(-c2cnn(C3CCNCC3)c2)cnc1N)c1c(Cl)ccc(F)c1Cl [Crizotinib]
Vision disorder (includes diplopia, photophobia, vision blurred, visual field defect, visual impairment, vitreous floaters, visual brightness, and visual acuity reduced): Vision disorder 64% (Includes diplopia, photopsia, photophobia, vision blurred,

Uveitis/Iritis (n = 586): 1%
Molecule: CC(C)(C)c1nc(-c2cccc(NS(=O)(=O)c3c(F)cccc3F)c2F)c(-c2ccnc(N)n2)s1 [Dabrafenib]
Can cause (ocular toxicity issue) (in vivo): cystoid macula edema

Conjunctivitis (cohort not given): 0.1-1%
Visual disorder (visual disturbance, vision blurred, decreased visual acuity) or dry eye (in vivo): 1-10%
Molecule: Cc1nc(Nc2ncc(C(=O)Nc3c(C)cccc3Cl)s2)cc(N2CCN(CCO)CC2)n1 [Dasatinib]

Reported Conjunctivitis (n = 84): 18%
Conjunctivitis (n = 485): 12%
Conjunctivitis Grade III (number of events, n = 485): 1
Molecule: C#Cc1cccc(Nc2ncnc3cc(OCCOC)c(OCCOC)cc23)c1 [Erlotinib]
Keratoconjunctivitis Sicca (n = 485): n = 485 and Keratoconjunctivitis Sicca 12% n = 485. Mentions of corneal
pooled incidence of ocular disorders (one pancreatic cancer study): 12.8%
pooled incidence of ocular disorders (three lung cancer studies): 17.8%

Molecule: COc1cc2ncnc(Nc3ccc(F)c(Cl)c3)c2cc1OCCCN1CCOCC1 [Gefitinib]
Mentions of (ocular toxicity issues) (full list, wrapped over lines: eye irritation, eye pain, corneal erosion/ulcer, aberrant eyelash growth, corneal membrane sloughing, and ocular ischemia/hemorrhage): Mentions of eye irritation, eye pain, corneal erosion/ulcer, aberrant eyelash

Molecule: Cc1cn(-c2cc(NC(=O)c3ccc(C)c(Nc4nccc(-c5cccnc5)n4)c3)cc(C(F)(F)F)c2)cn1 [Nilotinib]
Frequency class of vision impairment, vision blurred, visual acuity reduced, photopsia, eye irritation (in vivo): Uncommon: vision impairment, vision blurred, visual acuity reduced, photopsia,

Molecule: CC(=O)Nc1cccc(-n2c(=O)n(C3CC3)c(=O)c3c(Nc4ccc(I)cc4F)n(C)c(=O)c(C)c32)c1 [Trametinib]
Incidence of Retinal Veinous Occlusion (4/1,749): halo. Incidence of Retinal Veinous Occlusion was 0.2% (4/1,749).
Incidence of Retinal Pigment Epithelial Detachment (14/1,749): Incidence of Retinal Pigment Epithelial Detachment was 0.8% (14/1,749).
Mentions (ocular toxicity issues) (full list, wrapped over lines: blurry vision, dry eye, transient blindness, eye floaters, and visual halo): Mentions blurry vision, dry eye, transient blindness, eye floaters, and visual

Molecule: COc1cc2c(Nc3ccc(Br)cc3F)ncnc2cc1OCC1CCN(C)CC1 [Vandetanib]
Blurry vision (corneal opacities) (No cohort information): Blurry vision (corneal opacities) 9%. No cohort information.

Molecule: CCCS(=O)(=O)Nc1ccc(F)c(C(=O)c2c[nH]c3ncc(-c4ccc(Cl)cc4)cc23)c1F [Vemurafenib]
Mentions (ocular toxicity issues) (in vivo): Mentions retinal vein occlusion, uveitis, blurry vision, iritis, and photophobia

Molecule: Panitimumab
Conjunctivitis (in 463 patients): 4%
Eye/eyelid irritation (in 463 patients): 1%
increased lacrimation (in 463 patients): increased lacrimation (2%), in 463 patients
ocular hyperemia (in 463 patients): 3%

Molecule: Pertuzumab
Mentions (ocular toxicity issues) (in vivo): Mentions increased lacrimation

Molecule: Rituximab
Mentions (ocular toxicity issues) (in vivo): Mentions uveitis and optic neuritis
